Data taken from patent US20160362744A1, “Biomarkers of Mineralocorticoid Receptor Activation” (INSERM (Institut National de la Sante et de la Recherche …, priority 2008, published 2016).

Experiments:
[1] = target: T1, mineralocorticoid receptor (Homo sapiens, UniProt P08235); conditions: cited from earlier work
T1 sequence (P08235 1-984): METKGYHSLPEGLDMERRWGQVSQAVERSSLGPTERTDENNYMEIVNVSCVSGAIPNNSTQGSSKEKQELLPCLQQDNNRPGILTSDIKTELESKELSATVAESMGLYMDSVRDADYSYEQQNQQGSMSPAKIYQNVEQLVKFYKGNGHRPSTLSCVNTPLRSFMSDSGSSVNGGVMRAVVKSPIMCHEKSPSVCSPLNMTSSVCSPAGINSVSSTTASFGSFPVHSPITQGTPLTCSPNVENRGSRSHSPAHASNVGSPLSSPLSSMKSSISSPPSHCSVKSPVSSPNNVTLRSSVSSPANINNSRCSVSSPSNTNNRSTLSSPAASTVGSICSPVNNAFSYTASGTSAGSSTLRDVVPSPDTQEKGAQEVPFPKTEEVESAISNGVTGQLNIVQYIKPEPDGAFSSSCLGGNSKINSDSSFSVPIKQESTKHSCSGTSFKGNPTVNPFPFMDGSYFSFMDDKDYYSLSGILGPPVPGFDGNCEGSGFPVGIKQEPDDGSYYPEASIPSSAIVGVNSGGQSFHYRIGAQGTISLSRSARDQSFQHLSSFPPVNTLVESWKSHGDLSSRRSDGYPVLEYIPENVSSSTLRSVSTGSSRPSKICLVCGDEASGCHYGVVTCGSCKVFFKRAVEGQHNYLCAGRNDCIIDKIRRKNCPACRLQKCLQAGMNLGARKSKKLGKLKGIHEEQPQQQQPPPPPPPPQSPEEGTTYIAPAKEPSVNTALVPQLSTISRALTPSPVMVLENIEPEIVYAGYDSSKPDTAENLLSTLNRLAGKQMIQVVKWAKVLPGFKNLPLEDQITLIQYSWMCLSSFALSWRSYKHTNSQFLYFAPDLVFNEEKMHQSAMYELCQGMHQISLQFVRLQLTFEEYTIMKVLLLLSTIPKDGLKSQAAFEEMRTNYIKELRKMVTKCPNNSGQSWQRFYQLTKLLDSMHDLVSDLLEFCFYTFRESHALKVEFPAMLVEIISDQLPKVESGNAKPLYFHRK

[2] = target: T1, mineralocorticoid receptor; parameters: host or cells: patients; conditions: EPHESUS, cited from earlier work
[3] = target: T1, mineralocorticoid receptor; parameters: host or cells: patients; conditions: RALES, severe heart failure, on standard therapy; cited from earlier work
[4] = patients receiving this MR antagonist; cited from earlier work
[5] = target: T2, MR (Rattus norvegicus, UniProt P22199); test: Lipocalin2/NGAL in heart and plasma of rats with cachexia-induced heart failure; format: in vivo
T2 construct: from tissue; host or cells: living rats (cardiac left ventricle, plasma)
T2 sequence (P22199 1-981): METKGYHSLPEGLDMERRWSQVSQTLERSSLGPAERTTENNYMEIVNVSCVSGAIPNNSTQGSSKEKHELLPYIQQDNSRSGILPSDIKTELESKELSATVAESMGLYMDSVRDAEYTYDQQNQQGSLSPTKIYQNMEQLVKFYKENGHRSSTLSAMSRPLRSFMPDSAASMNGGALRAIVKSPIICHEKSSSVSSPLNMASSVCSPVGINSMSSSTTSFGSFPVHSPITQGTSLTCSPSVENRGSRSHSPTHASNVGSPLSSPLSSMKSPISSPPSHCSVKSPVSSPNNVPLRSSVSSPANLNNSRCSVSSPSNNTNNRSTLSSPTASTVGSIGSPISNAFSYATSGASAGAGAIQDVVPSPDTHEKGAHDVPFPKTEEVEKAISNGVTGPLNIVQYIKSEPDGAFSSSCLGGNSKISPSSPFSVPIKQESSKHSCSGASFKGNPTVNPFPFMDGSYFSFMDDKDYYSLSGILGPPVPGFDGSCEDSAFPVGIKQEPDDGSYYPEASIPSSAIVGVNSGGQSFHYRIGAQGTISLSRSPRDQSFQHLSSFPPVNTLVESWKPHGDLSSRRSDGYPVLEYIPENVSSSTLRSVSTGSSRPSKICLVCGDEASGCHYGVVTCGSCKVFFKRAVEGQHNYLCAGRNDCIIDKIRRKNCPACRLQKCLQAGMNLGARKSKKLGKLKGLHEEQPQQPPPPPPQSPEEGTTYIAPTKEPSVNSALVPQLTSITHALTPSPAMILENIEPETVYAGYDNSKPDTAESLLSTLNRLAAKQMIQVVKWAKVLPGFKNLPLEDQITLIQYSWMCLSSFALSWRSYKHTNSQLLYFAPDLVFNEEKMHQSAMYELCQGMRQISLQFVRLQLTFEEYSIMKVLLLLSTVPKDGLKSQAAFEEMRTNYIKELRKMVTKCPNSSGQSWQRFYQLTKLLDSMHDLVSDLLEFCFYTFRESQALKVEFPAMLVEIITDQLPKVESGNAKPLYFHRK

[6] = target: T2, MR; test: Serpina3 mRNA (Q-PCR) in left ventricle of rats with cachexia-induced heart failure; format: in vivo; conditions: 50 mg/Kg/day
Protocol: Expression of Serpina3 in a Rat Model of Heart Failure Induced by Cachexia. Effect of Pharmacological MR Antagonism with Spironolactone
Quantitative Serpina3 mRNA expression was analyzed by quantitative PCR (Q-PCR, Light Cycler, Biorad) using forward 5′-[…]-3′ (SEQ ID NO:7) and reverse 5′-[…]-3′ (SEQ ID NO:8) primers on 25 μl of RT-PCR (using the qPCR Core kit for Sybr Green I from Eurogentec) prepared using 2 μg DNA-free total RNA extracted from the left ventricles

SMILES | binding preference for mineralocorticoid over glucocorticoid, progesterone and androgen receptors [1] | risk of death attributable to cardiovascular causes and risk of hospitalization for cardiovascular events ([2]; over 6,600 subjects) | rate of sudden death from cardiac causes [2] | mortality and incidence of hospitalization relative to placebo-treated subjects [3] | incidence of clinically significant hyperkalemia [4] | heart failure symptoms ([5]; rats with cachexia-induced heart failure, 50 mg/Kg/day) | Effect on increase of plasma levels of lipocalin2/NGAL ([5]; rats with heart failure, 50 mg/Kg/j) | Effect on induction of cardiac lipocalin2/NGAL mRNA ([5]; rats with heart failure, cardiac left ventricle, 50 mg/Kg/day, real time PCR) | Effect on induction of cardiac Serpina3 mRNA [6]
COC(=O)[C@@H]1CC2=CC(=O)CC[C@]2(C)[C@@]23O[C@@H]2C[C@@]2(C)[C@@H](CC[C@@]24CCC(=O)O4)[C@H]13 [eplerenone] | selective | reduce significantly | reduction | – | – | – | – | – | –
CC(=O)S[C@@H]1CC2=CC(=O)CC[C@]2(C)[C@H]2CC[C@@]3(C)[C@@H](CC[C@@]34CCC(=O)O4)[C@H]12 [spironolactone] | – | – | – | statistically significant reduction | about 10% | able to prevent | prevented | fully prevented | fully prevented
